# According to patent publication US11467158B2, “BRCA1 mutations as predictive markers for topoisomerase inhibitions” (BOSTON MEDICAL CENTER CORPORATION, priority 2012, dated 2022):
# Entries after “also recorded” stand apart in the source; their conditions may differ. Non-standard residues stand in square brackets, D forms with d. No end group written: not given here. pS = N[C@@H](COP(=O)(O)O)C(=O)O
# Key:
# topo I [1] = assay: topo I degradation in cells (immunoblot with anti-topo I); format: cell-based
# Experimental: (§1) Phosphorylated GST-topo I was incubated with purified E1, UbcH5c (E2), and BRCA1/BARD1 (E3) (lane2). Phosphorylated topo I was also incubated with E1 and UbcH5c (E2) only as control (lane 1). Reactions were carried out in ubiquitination buffer at 37° C. for 30 min. The reaction products were analyzed by immunoblot analysis with anti-ubiquitin. […] Immunoprecipitates were analyzed by immunoblot analysis with anti-ubiquitin. […] Control and treated cells were harvested and lysed. Cell lysates were analyzed by immunoblot analysis with anti-topo I (upper panel) and anti-β-actin (lower panel).
# (§2) Cells were harvested after designated time and lysed. The cell lysates were analyzed by immunoblot analysis with anti-topo I (upper panel) and anti-β-actin for equal protein loading (lower panel). An infrared secondary antibody was used and a LICOR system was used to visualize the florescence. […] Immunoprecipitates were analyzed by immunoblot analysis with anti-Pan ubiquitin. […] The cell number was counted after 12 hours using a Celigo system. The cells were treated with 10 and 25 nM SN-38 for 72 hours. The cells were counted again using the Celigo system and growth inhibition was determined using a formula described in the materials and methods section.
# (§3) Control and treated cells were harvested and lysed. Cell lysates were analyzed by immunoblot analysis with anti-topo I (upper panel) and anti-β-actin (lower panel). […] Immunoprecipitates were analyzed by immunoblot analysis with anti-ubiquitin.
# (§4) To further validate the findings in cells the inventors used BRCA1 E3 ligase deficient HCC1937 cells. The cells are sensitive to DNA-damaging agents and have impaired BRCA1 E3 ligase function. The inventors have used HCC1937 cells and stably expressed BRCA1 (HCC1937-BRCA1) to restore E3 ligase function. Both, HCC1937 and HCC1937-BRCA1 cells were treated with CPT for 60 minutes and drug free for 30 minutes in the presence of MG132. Control and CPT treated cells were lysed and subjected to immunoprecipitation with anti-topoI. The immunoprecipitates were analyzed by immunoblot analysis with anti-ubiquitin. […] Topo I is degraded in the response to CPT by ubiquitin proteosomal pathways, and the rate of degradation at least in part determines anti neoplastic activity of the drug. To determine the correlation between topo I degradation and CPT efficacy in HCC1937 and HCC1937-BRCA cells, were treated with […] and topo I degradation (FIG. 2C) and cell growth inhibition assays were performed (FIG. 2D).
# (§5) To understand the topo I ubiquitination and CPT response, based on the inventors previous early screen, the inventors selected four triple negative breast cancer cell lines with differential rate of UPP mediated topo I degradation. […] To determine the level of CPT induced ubiquitination, control and treated cells were lysed and cell lysates were subjected to immunoprecipitation with anti-topoI. The immunoprecipitates were analyzed by immunoblot analysis with anti-ubiquitin. […] To understand the possible correlation between ubiquitination dependent topo I degradation and CPT response, cells were treated with different concentration of SN-38 and analyzed for percent growth inhibition. […] The highest percent of growth inhibition was detected in BT20 (FIG. 3C). Taken together, rate of topo I degradation by UPP determines the drug sensitivity in triple negative breast cancer cells.
# [2] = tested on: biosynthesis of nucleic acids; details: cited from earlier work
# leukemia L-1210 = details: experimentally transplanted leukemia L-1210 in mice; cited from earlier work
# Walker 256 tumor = details: experimentally transplanted Walker 256 tumor in rats; cited from earlier work
# topo I [3] = assay: topo I ubiquitination in cells (anti-topoI immunoprecipitation, anti-ubiquitin immunoblot); format: cell-based
# Experimental: as §1, §2, §3, §4, §5
# HCC1937 cells = assay: percent cell growth inhibition after 72 hours (Celigo); format: cell-based
# Experimental: as §1, §3, §4
# HCC1937-BRCA1 cells = assay: as above; format: cell-based
# Experimental: as §1, §3, §4
# MDAMB231 cells = assay: TNBC cell growth inhibition, 72 hours (Celigo); format: cell-based
# Experimental: as §2, with “The cells were treated with 10 and 25 nM SN-38 for 72 hours.” left out
# as §5, with “Taken together, rate of topo I degradation by UPP determines the drug sensitivity in triple negative breast cancer cells.” left out
# BT549 cells = assay: TNBC cell growth inhibition, 72 hours (Celigo); format: cell-based
# Experimental: as §2, §5
# SUM52 cells = assay: TNBC cell growth inhibition, 72 hours (Celigo); format: cell-based; details: 10 and 25 nM
# Experimental: as §2, §5
# BT20 cells = assay: TNBC cell growth inhibition, 72 hours (Celigo); format: cell-based
# Experimental: as §2, §5
# HIV-1 = details: acute and chronic infections, in vitro; cited from earlier work
# BRCA1-BRCT domain = molecular target: T1, BRCA1-BRCT domain (Homo sapiens, UniProt P38398); assay: fluorescence polarization of Topo I phosphopeptide with GST-BRCT; format: binding; details: peptide labeled with Alexa Fluor 532, final dilution 1:1000 or 1:500, varying GST-BRCT concentrations
# T1 construct: made in house; host or cells: E. coli Rosetta (DE3) pLysS (Novagen)
# Experimental: Phosphopeptide labeled with Alexa Fluor 532 was incubated at a final dilution of either 1:1000 or 1:500 with varying concentrations of GST-BRCT or buffer alone. Polarization of the light emitted by the labeled peptide was detected on a Tecan Infinite M1000 pro and is plotted as a function of protein concentration.
# An exemplary assay to identify a mutation in the BRCT domain which decreases the binding affinity of the BRCT domain for the phospho-ser10-topo I polypeptide was performed as follows (see FIG. 8): Topo I phosphopeptide NDpSQIEADFRLNDC (SEQ ID NO: 4) was conjugated to Alexa Fluor 532 (Invitrogen) via maleimide reaction with the C-terminal cysteine, as per manufacturer's protocol. Labeled peptide was separated from the reaction mixture by RP-HPLC using C-18 media and eluted with 30% acetonitrile. The partially purified peptide was lyophilized and resuspended in TBS with 1 mM DTT. GST-BRCT was expressed in Rosetta (DE3) pLysS (Novagen) and purified by standard methods. The purified protein was eluted from the GS beads and dialyzed against TBS containing 1 mM DTT and 5% glycerol prior to storage at −80°. […] 20 μl from each dilution was then transferred to each of 4 wells in a 384-well black plate, and FP was read on a Tecan Infinite M1000 pro and plotted as mP as a function of protein concentration.
# T1 sequence (P38398 1650-1863): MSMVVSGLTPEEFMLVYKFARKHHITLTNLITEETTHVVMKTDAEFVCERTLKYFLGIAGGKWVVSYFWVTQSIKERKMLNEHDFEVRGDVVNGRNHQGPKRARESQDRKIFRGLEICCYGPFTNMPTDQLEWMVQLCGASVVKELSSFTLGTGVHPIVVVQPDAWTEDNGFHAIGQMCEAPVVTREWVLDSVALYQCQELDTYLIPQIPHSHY
molecule,measurement,setting,value
"CC[C@@]1(O)C(=O)OCc2c1cc1n(c2=O)Cc2cc3ccccc3nc2-1 [CPT, camptothecin]",topo I degradation,"topo I [1]; BT20 cells, in 2 hours",not appreciably degraded
same,topo I degradation,"topo I [1]; BT549 cells, in 2 hours",not appreciably degraded
same,topo I degradation,topo I [1]; HCC1937-BRCA1 cells,degrades topo I
same,topo I degradation,topo I [1]; HCC1937 cells,fails to ubiquitinate and degrade topo I
same,time in which topo I was degraded,topo I [1]; MDAMB231 cells,≤ 2 h
same,time in which topo I was degraded,topo I [1]; SUM52 cells,≤ 2 h
same,inhibitory activity toward the biosynthesis of nucleic acids,[2],strong inhibitory activity
same,anti-tumor activity,leukemia L-1210,potent anti-tumor activity
same,anti-tumor activity,Walker 256 tumor,potent anti-tumor activity
same,topo I ubiquitination,topo I [3]; BT20 cells,no ubiquitination
same,topo I ubiquitination,topo I [3]; BT549 cells,no ubiquitination
same,topo I ubiquitination,"topo I [3]; HCC1937 cells (BRCA1 E3 ligase deficient), treated 60 minutes, drug free 30 minutes, MG132",No ubiquitination; also recorded: fail to ubiquitinate topo I; also recorded: fails to ubiquitinate and degrade topo I
same,topo I ubiquitination,topo I [3]; MDAMB231 cells,ubiquitinated
same,topo I ubiquitination,topo I [3]; SUM52 cells,ubiquitinated
same,cell growth inhibition (sensitivity to the drug),HCC1937 cells,highly sensitive
same,cell growth inhibition (sensitivity to the drug),HCC1937-BRCA1 cells,resistant
CCc1c2c(nc3ccc(O)cc13)-c1cc3c(c(=O)n1C2)COC(=O)[C@]3(O)CC [SN-38],topo I degradation,topo I [1]; HCC1937-BRCA1 cells,degrade topo I
same,topo I degradation,topo I [1]; HCC1937 cells,do not degrade topo I
same,cell growth under drug,MDAMB231 cells; 50 nM,cells were growing
same,sensitivity to the drug (growth inhibition),MDAMB231 cells; 72 hours,remained resistant
same,sensitivity to the drug (growth inhibition),BT549 cells,very sensitive
same,percent growth inhibition (compared among four TNBC cell lines),SUM52 cells,least
same,percent growth inhibition (compared among four TNBC cell lines),BT20 cells; BT20 cells,highest
same,sensitivity to the drug (growth inhibition),BT20 cells; BT20 cells (printed BT2020),very sensitive
same,topo I ubiquitination,"topo I [3]; HCC1937-BRCA1 cells (wild type BRCA1 restored), treated 60 minutes, drug free 30 minutes, MG132",pronounced topo I ubiquitination
same,cell growth inhibition (sensitivity to the drug),HCC1937 cells,sensitive
same,cell growth inhibition (sensitivity to the drug),HCC1937-BRCA1 cells,sensitive
CC[C@@]1(O)C(=O)OCc2c1cc1n(c2=O)Cc2cc3c(CN(C)C)c(O)ccc3nc2-1 [Topotecan],inhibition of HIV-1 infection,HIV-1,inhibit both acute and chronic HIV-1 infections
"NDpSQIEADFRLNDC (SEQ ID NO: 4) (ND[pS]QIEADFRLNDC; listed as Homo sapiens) [Topo I phosphopeptide, topo I phosphopeptide with phosphorylated S10]",binding to GST-BRCT (fluorescence polarization),BRCA1-BRCT domain,direct interaction
same,binding to GST-BRCT (fluorescence polarization),BRCA1-BRCT domain; listed as topo I phosphopeptide,binds directly
